Tests used:
[1] = target: T1, KRas (Homo sapiens, UniProt P01116, G12C); test: KRas degradation in SW1573 cells by Western blot, normalized to GAPDH (data of Table 14); assay type: cell-based; details: SW1573 cells
Outline: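 SW1573 cells, homozygous for the KRas G12C mutation and maintained in DMEM with 10% FBS and 1% penicillin-streptomycin, were seeded in 12-well plates, allowed to attach overnight at 37° C. under 5% CO2, then serum-starved for 24 hours before compound exposure. KRas levels were measured by Western blot, normalized to GAPDH, and compared with DMSO controls to give percent degradation, DC50 and Dmax.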

[2] = target: T1, KRas; test: KRas degradation in NCI-H2030 cells by Western blot, normalized to GAPDH (data of Table 14); assay type: cell-based; set-up: host or cells: NCI-H2030; details: H2030 cells; for Dmax: NCI-H2030
Outline: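 Cells plated overnight, switched to FBS-free medium for 24 h, then treated (0.3, 1, 3 μM final; 0.1% DMSO) for 24 h if VHL-based, otherwise 72 h. RIPA lysates (10 μg protein) blotted for KRas, signal normalized to GAPDH and compared with DMSO.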

SMILES | DC50 [1] [nM] | Dmax [1] [%] | Percent Degradation at Indicated Concentration (μM) ([1]; 0.01 μM) | Percent Degradation at Indicated Concentration (μM) ([1]; 0.03 μM) | Percent Degradation at Indicated Concentration (μM) ([1]; 0.1 μM) | Percent Degradation at Indicated Concentration (μM) ([1]; 0.3 μM) | Percent Degradation at Indicated Concentration (μM) ([1]; 1 μM) | Percent Degradation at Indicated Concentration (μM) ([2]; 0.3 μM) | Percent Degradation at Indicated Concentration (μM) ([2]; 1 μM) | Percent Degradation at Indicated Concentration (μM) ([2]; 3 μM) | Dmax [2] [%] | Percent Degradation at Indicated Concentration (μM) ([1]; 3 μM)
C=CC(=O)N1CCN(c2nc(O[C@H](C)CN3CCC(OCCOCCOCCOCCOCC(=O)N[C@H](C(=O)N4C[C@H](O)C[C@H]4C(=O)N[C@@H](C)c4ccc(-c5scnc5C)cc4)C(C)(C)C)CC3)nc3c(F)c(-c4cc(O)cc5ccccc45)c(Cl)cc23)CC1 [compound 401, (2S,4R)-1-((2S)-17-((1-((2R)-2-((4-(4-acryloylpiperazin-1-yl)-6-chloro-8-fluoro-7-(3-hydroxynaphthalen-1-yl)quinazolin-2-yl)oxy)propyl)piperidin-4-yl)oxy)-2-(tert-butyl)-4-oxo-6,9,12,15-tetraoxa-3-azaheptadecanoyl)-4-hydroxy-N-((S)-1-(4-(4-methylthiazol-5-yl)phenyl)ethyl)pyrrolidine-2-carboxamide] | ≥ 1000 | ≤ 35 | C (Percent Degradation: C ≤ 35) | C (Percent Degradation: C ≤ 35) | C (Percent Degradation: C ≤ 35) | C (Percent Degradation: C ≤ 35) | C (Percent Degradation: C ≤ 35) | C (Percent Degradation: C ≤ 35) | C (Percent Degradation: C ≤ 35) | C (Percent Degradation: C ≤ 35) | ≤ 35 | –
C=CC(=O)N1CCN(c2nc(O[C@H](C)CN3CCC(OCCOCCOCCOCCOCCOCC(=O)N[C@H](C(=O)N4C[C@H](O)C[C@H]4C(=O)N[C@@H](C)c4ccc(-c5scnc5C)cc4)C(C)(C)C)CC3)nc3c(F)c(-c4cc(O)cc5ccccc45)c(Cl)cc23)CC1 [compound 402, (2S,4R)-1-((2S)-20-((1-((2R)-2-((4-(4-acryloylpiperazin-1-yl)-6-chloro-8-fluoro-7-(3-hydroxynaphthalen-1-yl)quinazolin-2-yl)oxy)propyl)piperidin-4-yl)oxy)-2-(tert-butyl)-4-oxo-6,9,12,15,18-pentaoxa-3-azaicosanoyl)-4-hydroxy-N-((S)-1-(4-(4-methylthiazol-5-yl)phenyl)ethyl)pyrrolidine-2-carboxamide] | ≥ 1000 | ≤ 35 | C (Percent Degradation: C ≤ 35) | C (Percent Degradation: C ≤ 35) | C (Percent Degradation: C ≤ 35) | C (Percent Degradation: C ≤ 35) | C (Percent Degradation: C ≤ 35) | C (Percent Degradation: C ≤ 35) | C (Percent Degradation: C ≤ 35) | C (Percent Degradation: C ≤ 35) | ≤ 35 | –
Cc1ncsc1-c1ccc([C@H](C)NC(=O)[C@@H]2C[C@@H](O)CN2C(=O)[C@@H](NC(=O)COCCOCCOCCOCCOCCOC2CCN(C[C@@H](C)Oc3nc(N4CCN(C(=O)C(O)O)CC4)c4cc(Cl)c(-c5cc(O)cc6ccccc56)c(F)c4n3)CC2)C(C)(C)C)cc1 [compound 248, (2S,4R)-1-((2S)-2-(tert-butyl)-20-((1-((2R)-2-((6-chloro-4-(4-(2,2-dihydroxyacetyl)piperazin-1-yl)-8-fluoro-7-(3-hydroxynaphthalen-1-yl)quinazolin-2-yl)oxy)propyl)piperidin-4-yl)oxy)-4-oxo-6,9,12,15,18-pentaoxa-3-azaicosanoyl)-4-hydroxy-N-((S)-1-(4-(4-methylthiazol-5-yl)phenyl)ethyl)pyrrolidine-2-carboxamide] | – | – | – | – | – | C (Percent Degradation: C ≤ 35) | C (Percent Degradation: C ≤ 35) | – | – | – | – | C (Percent Degradation: C ≤ 35)
C=CC(=O)N1CCN(c2nc(O[C@H](C)CN3CCC(OCCOCCOCCOc4cc(-c5scnc5C)ccc4CNC(=O)[C@@H]4C[C@@H](O)CN4C(=O)[C@@H](c4cc(C)no4)C(C)C)CC3)nc3c2CCN(c2cc(O)cc4ccccc24)C3)CC1 [compound 440, (2S,4R)-N-(2-(2-(2-(2-((1-((R)-2-((4-(4-acryloylpiperazin-1-yl)-7-(3-hydroxynaphthalen-1-yl)-5,6,7,8-tetrahydropyrido[3,4-d]pyrimidin-2-yl)oxy)propyl)piperidin-4-yl)oxy)ethoxy)ethoxy)ethoxy)-4-(4-methylthiazol-5-yl)benzyl)-4-hydroxy-1-((R)-3-methyl-2-(3-methylisoxazol-5-yl)butanoyl)pyrrolidine-2-carboxamide] | – | – | – | – | C (Percent Degradation: C ≤ 35) | C (Percent Degradation: C ≤ 35) | C (Percent Degradation: C ≤ 35) | – | – | – | – | –
C=CC(=O)N1CCN(c2nc(O[C@H](C)CN3CCC(OCCOCCOCCOCCOc4ccc5c(c4)CN(C4CCC(=O)NC4=O)C5=O)CC3)nc3c2CCN(c2cc(O)cc4ccccc24)C3)CC1 (stereo partly drawn) [compound 424, 3-(5-(2-(2-(2-(2-((1-((R)-2-((4-(4-acryloylpiperazin-1-yl)-7-(3-hydroxynaphthalen-1-yl)-5,6,7,8-tetrahydropyrido[3,4-d]pyrimidin-2-yl)oxy)propyl)piperidin-4-yl)oxy)ethoxy)ethoxy)ethoxy)ethoxy)-1-oxoisoindolin-2-yl)piperidine-2,6-dione] | – | – | – | – | C (Percent Degradation: C ≤ 35) | C (Percent Degradation: C ≤ 35) | C (Percent Degradation: C ≤ 35) | – | – | – | – | –
C=CC(=O)N1CCN(c2nc(O[C@H](C)CN3CCC(OCCOCCOCCOCCOCC(=O)N[C@H](C(=O)N4C[C@H](O)C[C@H]4C(=O)N[C@@H](C)c4ccc(-c5scnc5C)cc4)C(C)(C)C)CC3)nc3c2CCN(c2cc(O)cc4ccccc24)C3)CC1 [compound 409] | – | – | – | – | C (Percent Degradation: C ≤ 35) | C (Percent Degradation: C ≤ 35) | C (Percent Degradation: C ≤ 35) | – | – | – | – | –

Continued, values first:

DC50 [1] [nM] | Dmax [1] [%] | Percent Degradation at Indicated Concentration (μM) ([1]; 0.01 μM) | Percent Degradation at Indicated Concentration (μM) ([1]; 0.03 μM) | Percent Degradation at Indicated Concentration (μM) ([1]; 0.1 μM) | Percent Degradation at Indicated Concentration (μM) ([1]; 0.3 μM) | Percent Degradation at Indicated Concentration (μM) ([1]; 1 μM) | Percent Degradation at Indicated Concentration (μM) ([2]; 0.3 μM) | Percent Degradation at Indicated Concentration (μM) ([2]; 1 μM) | Percent Degradation at Indicated Concentration (μM) ([2]; 3 μM) | Dmax [2] [%] | Percent Degradation at Indicated Concentration (μM) ([1]; 3 μM) | SMILES
– | – | – | – | – | C (Percent Degradation: C ≤ 35) | C (Percent Degradation: C ≤ 35) | – | – | – | – | C (Percent Degradation: C ≤ 35) | C[C@H](CN1CCC(OCCOCCOCCOCCOCCOc2ccc3c(c2)C(=O)N(C2CCC(=O)NC2=O)C3=O)CC1)Oc1nc(N2CCN(C(=O)C(O)O)CC2)c2cc(Cl)c(-c3cc(O)cc4ccccc34)c(F)c2n1 (stereo partly drawn) [compound 515, 5-((14-((1-((2R)-2-((6-chloro-4-(4-(2,2-dihydroxyacetyl)piperazin-1-yl)-8-fluoro-7-(3-hydroxynaphthalen-1-yl)quinazolin-2-yl)oxy)propyl)piperidin-4-yl)oxy)-3,6,9,12-tetraoxatetradecyl)oxy)-2-(2,6-dioxopiperidin-3-yl)isoindoline-1,3-dione]
– | – | – | C (Percent Degradation: C ≤ 35) | C (Percent Degradation: C ≤ 35) | C (Percent Degradation: C ≤ 35) | C (Percent Degradation: C ≤ 35) | – | – | – | – | C (Percent Degradation: C ≤ 35) | CN1C[C@H](OCCOCCOc2ccc3c(c2)C(=O)N(C2CCC(=O)NC2=O)C3=O)C[C@H]1COc1nc2c(c(N3CCN(C(N)=O)[C@@H](CC#N)C3)n1)CCN(c1cccc3ccccc13)C2 (stereo partly drawn) [compound 539, (2S)-2-(cyanomethyl)-4-(2-(((2S,4R)-4-(2-(2-((2-(2,6-dioxopiperidin-3-yl)-1,3-dioxoisoindolin-5-yl)oxy)ethoxy)ethoxy)-1-methylpyrrolidin-2-yl)methoxy)-7-(naphthalen-1-yl)-5,6,7,8-tetrahydropyrido[3,4-d]pyrimidin-4-yl)piperazine-1-carboxamide]
– | ≥ 70 | – | – | B (35 < B < 70) | A (A > 70) | C (Percent Degradation: C ≤ 35) | – | – | – | – | – | C=CC(=O)N1CCN(c2nc(OC[C@@H]3C[C@@H](OCCOCCOCCOCCOCCNc4cccc5c4C(=O)N(C4CCC(=O)NC4=O)C5=O)CN3C)nc3c2CCN(c2cccc4ccccc24)C3)C[C@@H]1CC#N (stereo partly drawn) [compound 519, 2-((2S)-1-acryloyl-4-(2-(((2S,4R)-4-((14-((2-(2,6-dioxopiperidin-3-yl)-1,3-dioxoisoindolin-4-yl)amino)-3,6,9,12-tetraoxatetradecyl)oxy)-1-methylpyrrolidin-2-yl)methoxy)-7-(naphthalen-1-yl)-5,6,7,8-tetrahydropyrido[3,4-d]pyrimidin-4-yl)piperazin-2-yl)acetonitrile]

From US12552783B2, “Modulators of proteolysis and associated methods of use” (Arvinas Operations, Inc., priority 2018, dated 2026)
